Literature values, collected in patent US11472782B2, “RIP1 inhibitory compounds and methods for making and using the same” (priority 2018, dated 2022).

Tested on: TNF-alpha induced hypothermia
Conditions: mouse, dose of 30 mg/kg, according to WO 2014/125444

SMILES: CN1C(=O)[C@@H](NC(=O)c2nnc(Cc3ccccc3)[nH]2)COc2ccccc21 [comparative compound, (S)-5-benzyl-N-(5-methyl-4-oxo-2,3,4,5-tetrahydrobenzo[b][1,4]oxazepin-3-yl)-4H-1,2,4-triazole-3-carboxamide]
- inhibition of TNF-alpha induced hypothermia: 93%
